“Also recorded” adds a separate entry of the source.
Legend:
[1] = molecular target: T1, PRMT1 (Homo sapiens, UniProt Q99873); assay: Dynamic light scattering of PRMT1 oligomers; type: physicochemical; details: pH 8, 25 °C; for disruption of PRMT1 oligomers by denaturant: 6 M guanidine hydrochloride or 5 M guanidine thiocyanate
T1 construct: human PRMT1 protein (amino acid residue 11–353); His6; made in house
Excerpt: Dynamic light scattering (DLS) uses a laser to measure the particle size distribution ([26]). The DLS can give information regarding the heterogeneity of protein in a sample ([27]). In the past, DLS was used to study microbial and viral structure ([28]). Nowadays, DLS is a popular method for studying nanoparticles, liposomes, and exosomes ([29], [30], [31], [32]). Researchers have also used DLS to study the protein folding of bovine serum albumin ([33]). Therefore, we envisage that the DLS can be utilized to analyze the size changes of PRMT1 oligomeric compositions in an aqueous solution. We expect to see an increase in size with increasing protein concentrations. The prepared PRMT1 protein at varied concentrations was allowed to incubate in the aqueous buffer for equilibrium on ice for 10 min. The protein solution was filtered with 0.2-micron filter to remove any big interfering particles. The protein size was analyzed using a Malvern Zetasizer instrument. We took an average of three runs with about 25 scans each time to evaluate the data. […] Guanidine hydrochloride is a popular protein denaturant ([34]). […] As a negative control, we incubated PRMT1 in the presence of 6 M guanidine hydrochloride to disrupt oligomer formation. […] A literature reported that guanidine thiocyanate is a stronger denaturant than guanidine hydrochloride ([35]).
Figure 2 Oligomerization of PRMT1 detection by dynamic light scattering. Various concentrations of PRMT1 were incubated on ice for 10 min, then filtered by 0.2-micron syringe filter and collected data from the DLS. The top line with black circle indicates PRMT1 without denaturant. The open triangle and hexagon lines indicated PRMT1 oligomeric structure disrupted by 6 M guanidine hydrochloride and 5 M guanidine thiocyanate, respectively.
Indicated concentrations of PRMT1 were incubated for 10 min on ice with buffer (50 mM Hepes pH 8, 10 mM NaCl, 0.5 mM EDTA, 0.5 mM DTT) and filtered through the 0.22 μm syringe filter. For the experiment to disrupt the oligomer formation, 6 M of guanidine hydrochloride or 5 M of guanidine thiocyanate was added to the reaction. The samples were injected into the 1 ml disposable cuvette and measured by Zetasizer Nano ZS (Malvern Instruments) at 25 °C. Three measurements of 25 scans each were collected to average. The data was analyzed by the Malvern Zetasizer software v7.10.

[2] = molecular target: T1, PRMT1; assay: Stopped-flow fluorescence dissociation of H4FL from PRMT1; type: binding; details: for koff: 1:25 dilution, pH 8.0, ex 498 / em 524, at least three shots averaged, single exponential
Excerpt: We next utilized the stopped-flow technique to measure the dissociation rates of peptide substrate from PRMT1 at different PRMT1 concentrations. We used a rapid dilution experiment with stopped flow fluorescence to measure the dissociation rate of H4 peptide from PRMT1. […] We reasoned that the changes of fluorescence intensity can be used to measure dissociation rate of H4 substrate. In the experiment, the H4FL was premixed with PRMT1 and loaded into the sample chamber of the stopped flow equipment. The mixture was rapidly mixed with an access buffer which initiated the dissociation of H4FL from PRMT1 on the millisecond scale. […] The averaged data curves were fitted to the single exponential equation to yield dissociation rate constant koff. The koff was 42.27 s^−1 at 0.5 μM of PRMT1, the koff was 22.29 s^−1at 1.5 μM of PRMT1, and the koff was 17.65 s^−1 at 5 μM of PRMT1 (Fig. 9D).
Figure 9 Oligomerization helps PRMT1 retain its substrate. The experiment was carried out by the SX20 stopped-flow spectrometers with (A) 0.5 μM, (B) 1.5 μM, and (C) 5 μM of PRMT1. The PRMT1 was premixed with 0.8 μM H4FL peptide. The mixture was diluted with the reaction buffer for a 1:25 dilution when the reaction was run. D, data summary of koff. TEXT PRINTED IN THE PICTURE: (D) no label printed: koff: 42.27 s^-1 (Concentration of PRMT1: 0.5 μM); koff: 22.29 s^-1 (Concentration of PRMT1: 1.5 μM); koff: 17.65 s^-1 (Concentration of PRMT1: 5 μM)
The trapping experiment to measure the dissociation rate of PRMT1 was carried out using the SX20 stopped-flow spectrometers (Applied Photophysics). The setting for excitation was 498 and emission was 524. A constant concentration of 0.8 μM of H4FL peptide (Peptide Sequence: Ac-[…]pr(FL)[…], in which FL stands for fluorescein) was pre-mix with 0.5 μM, 1.5 μM, and 5.0 μM of PRMT1. The mixture was loaded on the 100 μl drive syringe. Another 2.5 ml drive syringe was loaded with reaction buffer (50 mM Hepes pH 8.0, 10 mM NaCl, 0.5 mM EDTA, and 0.5 mM DTT) to create the 1:25 dilution factor. At least three shots were averaged for each reaction and fitted to the single exponential function. F is the fluorescence intensity, t is time, A is the amplitude of fluorescence, k is the dissociation rate constant, and C is the final value of fluorescence.(2) F=Aexp(−kt)+C

[3] = molecular target: T2, PRMT1-WT (Homo sapiens, UniProt Q99873); assay: Steady-state kinetics, radiometric filter-binding assay, PRMT1-WT; type: biochemical
T2 construct: His-MBP (N, cleaved yes); made in house; host or cells: Escherichia coli BL21 (DE3) RIPL
Excerpt: To gain further insights into the effect of oligomerization on the PRMT1 activity, we measured the steady-state kinetic parameters of different peptide substrates under PRMT1 catalysis using the radiometric assay. […] A constant concentration of PRMT1-WT was mixed with various concentrations of peptide and a constant concentration of radioactive SAM. After quenching the reaction, the reaction mixture was loaded onto the P81 filter paper that was washed, air-dried, and soaked in scintillation cocktail for scintillation counting. The rates of methylation as a function of the peptide concentration were plotted in Figure 8A and fit with the Hill equation to obtain catalytic parameters kcat and K0.5 (Fig. 8B).
Figure 8 Steady state kinetic characterization of PRMT1 catalysis in oligomeric states. Radioactive kinetic parameters were measured using filter-binding assay. […] The reaction time was 15 min at 30 °C and quenched with 100% isopropanol. For the reaction with PRMT1-E153Q, 0.05 μM PRMT1-E153Q was incubated on ice with PRMT1 for 20 min equilibration before adding SAM and peptide. A, kinetic parameters of oligomeric states in graphical form. B, representation of the kinetic parameters in kcat, K0.5, and kcat/K0.5.
Each reaction sample was consisted of 0.05 μM PRMT1, 15 μM ^14C-SAM, and various concentrations of peptide. […]

[4] = molecular target: T2, PRMT1-WT; assay: Radiometric P81 filter-binding assay, PRMT1-WT concentration dependence; type: biochemical; details: 50 μM peptide, 2 μM [3H]-SAM and 48 μM SAM, 30 min, room temperature, pH 8.0
Excerpt: We used the phosphocellulose P81 filter paper–binding assay to measure the catalytic activity of PRMT1 at different concentrations on individual peptides. Each reaction mixture was composed of PRMT1-WT at varied concentrations, at fixed concentrations of SAM and peptide. The reaction mixture was quenched with isopropanol, transferred to the P81 filter paper, and washed with sodium bicarbonate buffer (pH 9). […] The measured count-per-minute (CPM) values correlated directly with the amounts of methylated peptide products. In a typical enzymatic catalysis, the product should be formed linearly as a function of enzyme concentration.
Various concentrations of PRMT1-WT were incubated with radioactive 2 μM [3H]-SAM and 48 μM SAM and 50 μM of indicated peptides for 30 min. The reaction was quenched with 100% isopropanol.
The reaction buffer consisted of 50 mM Hepes pH 8.0, 10 mM NaCl, 0.5 mM EDTA, and 0.5 mM DTT. The reaction was incubated at room temperature for 30 min after being initiated with ^3H-SAM SAM. An equal amount of 100% isopropanol to the total reaction volume was used to quench the reaction. The reaction liquid was transferred onto the phosphocellulose P81 filter paper (1.1 cm × 2 cm, Protein Chemistry & Metabolism Unit at St Vincent's Institute of Medical Research). The P81 filter papers containing the samples were left at room temperature for 30 min to airdry. […]

[5] = molecular target: Human PRMT1 (11-353), His-MBP tag removed (human)

T1 sequence (Q99873 11-353 isoform Q99873-3): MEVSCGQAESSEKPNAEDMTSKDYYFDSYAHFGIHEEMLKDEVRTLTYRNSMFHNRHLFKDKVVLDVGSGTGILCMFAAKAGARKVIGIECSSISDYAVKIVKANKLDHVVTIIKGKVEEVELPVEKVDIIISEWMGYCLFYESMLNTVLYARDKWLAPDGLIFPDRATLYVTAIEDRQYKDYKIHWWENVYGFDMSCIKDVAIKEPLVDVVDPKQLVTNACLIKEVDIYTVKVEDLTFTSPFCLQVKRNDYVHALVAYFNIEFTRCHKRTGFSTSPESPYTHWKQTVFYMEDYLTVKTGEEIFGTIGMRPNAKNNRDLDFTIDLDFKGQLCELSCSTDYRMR
T2 sequence (Q99873 11-353 isoform Q99873-3): as above

For Cl.N=C(N)N [guanidine hydrochloride], the “disruption of PRMT1 oligomers by denaturant” value [1] was “substantially smaller than those values without guanidine hydrochloride” and the “highest Z-average of PRMT1 in presence of denaturant” value ([1]; 6 M guanidine hydrochloride, average of three runs of 25 scans) was 8.43 nm.

In the case of N#CS.N=C(N)N [guanidine thiocyanate], the “Z-average of PRMT1 in presence of denaturant” value ([1]; 5 M guanidine thiocyanate, average of three runs of 25 scans) is reported as 1.27 nm and the “disruption of PRMT1 oligomers by denaturant” value [1] is reported as “better at denaturing PRMT1 oligomers than guanine hydrochloride”.

“Ac-SGRGKGGKGDpr(FL)GKGGAKRHRK [H4FL, fluorescently labeled H4 peptide]” showed a koff ([2]; 0.5 μM PRMT1, 0.8 μM H4FL) of 42.27 s⁻¹, a koff ([2]; 1.5 μM PRMT1, 0.8 μM H4FL) of 22.29 s⁻¹ and a koff ([2]; 5 μM PRMT1, 0.8 μM H4FL) of 17.65 s⁻¹. For the same compound, the “koff vs PRMT1 concentration / oligomeric state” value ([2]; 0.5, 1.5 and 5 μM PRMT1) was “the koff decreased as PRMT1 concentration increased; also recorded: smaller at higher oligomeric states”.

For Ac-SGRGKGGKGLGKGGAK [Ac-H4(1–16)], the “K0.5 / binding comparison of Ac-H4(1–16) and longer H4 peptide” value [3] was “greater than Ac-H4(1–22); also recorded: weaker PRMT1 binding” and the “kcat, fold lower than Ac-H4(1–22)” value ([3]; Ac-H4(1–16) vs Ac-H4(1–22)) was 1.3 fold.

“Ac-SGRmeGKGGKGLGKGGAKRHRK [Ac-H4(1–20)R3me]” was tested, and the “PRMT1 enzymatic activity (CPM) vs PRMT1 concentration” value [4] was “increase as higher-order oligomeric structures were formed”.

“PRMT1-E153Q, catalytically inactive mutant (enzyme)” gave a dimethylated R4me2 (MALDI-MS, percent relative to R4 peptide), 0.5 μM PRMT1-WT with 0 to 2 μM PRMT1-E153Q [5] of 5.85% and a monomethylated product R4me1 (MALDI-MS, percent relative to R4 peptide), 0.5 μM PRMT1-WT with 0 to 2 μM PRMT1-E153Q [5] of 20.2%.
